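Step 1: Grow cells in 96-well plates. Step 2: Expose to compound for 48 hours at 5 concentrations. Step 3: Interpolate endpoints linearly; if unreached, use highest concentration. TGI: concentration producing complete growth inhibition.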
Tests used:
Test in all cases: NCI tumour cell line growth inhibition, 48 h
786-0 renal = test system: 786-0 renal
A498 renal = test system: A498 renal
A549 NSCLC = test system: A549 NSCLC
ACHN renal = test system: ACHN renal
BT-549 breast = test system: BT-549 breast
CAKI-1 renal = test system: CAKI-1 renal
CCRF-CEM leukemia = test system: CCRF-CEM leukemia
COLO 205 colon = test system: COLO 205 colon
DU-145 prostate = test system: DU-145 prostate
EKVX NSCLC = test system: EKVX NSCLC
HCC-2998 colon = test system: HCC-2998 colon
HCT-116 colon = test system: HCT-116 colon
HCT-15 colon = test system: HCT-15 colon
HL-60(TB) leukemia = test system: HL-60(TB) leukemia
HOP-62 NSCLC = test system: HOP-62 NSCLC
HOP-92 NSCLC = test system: HOP-92 NSCLC
HS 578T breast = test system: HS 578T breast
HT29 colon = test system: HT29 colon
IGROV1 ovarian = test system: IGROV1 ovarian
K-562 leukemia = test system: K-562 leukemia
KM12 colon = test system: KM12 colon
LOX IMVI melanoma = test system: LOX IMVI melanoma
M14 melanoma = test system: M14 melanoma
MALME-3M melanoma = test system: MALME-3M melanoma
MCF7 breast = test system: MCF7 breast
MDA-MB-231 breast = test system: MDA-MB-231 breast
MDA-MB-435 = test system: MDA-MB-435
MDA-N = test system: MDA-N
MOLT-4 leukemia = test system: MOLT-4 leukemia
NCI-H226 lung = test system: NCI-H226 lung
NCI-H23 lung = test system: NCI-H23 lung
NCI-H460 lung = test system: NCI-H460 lung
NCI-H522 lung = test system: NCI-H522 lung
NCI/ADR-RES ovarian = test system: NCI/ADR-RES ovarian
OVCAR-3 ovarian = test system: OVCAR-3 ovarian
OVCAR-4 ovarian = test system: OVCAR-4 ovarian
OVCAR-5 ovarian = test system: OVCAR-5 ovarian
OVCAR-8 ovarian = test system: OVCAR-8 ovarian
PC-3 prostate = test system: PC-3 prostate
RPMI-8226 leukemia = test system: RPMI-8226 leukemia
RXF 393 renal = test system: RXF 393 renal
SF-268 CNS = test system: SF-268 CNS
SF-295 CNS = test system: SF-295 CNS
SF-539 CNS = test system: SF-539 CNS
SK-MEL-2 melanoma = test system: SK-MEL-2 melanoma
SK-MEL-28 melanoma = test system: SK-MEL-28 melanoma
SK-MEL-5 melanoma = test system: SK-MEL-5 melanoma
SK-OV-3 ovarian = test system: SK-OV-3 ovarian
SN12C renal = test system: SN12C renal
SNB-19 CNS = test system: SNB-19 CNS
SNB-75 CNS = test system: SNB-75 CNS
SR leukemia = test system: SR leukemia
SW-620 colon = test system: SW-620 colon
T-47D breast = test system: T-47D breast
TK-10 renal = test system: TK-10 renal
U251 CNS = test system: U251 CNS
UACC-257 melanoma = test system: UACC-257 melanoma
UACC-62 melanoma = test system: UACC-62 melanoma
UO-31 renal = test system: UO-31 renal

Question: With `CC(C)NCC(O)c1cc(OCc2ccccc2)c(OCc2ccccc2)cc1NC(=O)CCC(=O)O` (centres undefined) as the compound, how does the TGI (786-0 renal) read?
Answer: Its TGI is 20.9 µM.

Question: And the TGI (A498 renal)?
Answer: The TGI was 26 µM.

Question: What about the TGI (A549 NSCLC) of the same compound?
Answer: The TGI was 24.5 µM.

Question: What about the TGI (ACHN renal) of the same compound?
Answer: Its TGI is 13.1 µM.

Question: And the TGI (BT-549 breast)?
Answer: The TGI was 31.1 µM.

Question: What about the TGI (CAKI-1 renal) of the same compound?
Answer: The TGI was 21.3 µM.

Question: And the TGI (CCRF-CEM leukemia)?
Answer: The TGI was 13 µM.

Question: What about the TGI (COLO 205 colon) of the same compound?
Answer: The TGI was 4.01 µM.

Question: And the TGI (DU-145 prostate)?
Answer: The TGI was 25.8 µM.

Question: And the TGI (EKVX NSCLC)?
Answer: Its TGI is 26.9 µM.

Question: And the TGI (HCC-2998 colon)?
Answer: The TGI was 6.47 µM.

Question: And the TGI (HCT-116 colon)?
Answer: The TGI was 17.9 µM.

Question: And the TGI (HCT-15 colon)?
Answer: Its TGI is 12.4 µM.

Question: What about the TGI (HL-60(TB) leukemia) of the same compound?
Answer: The TGI was 15.4 µM.

Question: And the TGI (HOP-62 NSCLC)?
Answer: The TGI was 29.7 µM.

Question: What about the TGI (HOP-92 NSCLC) of the same compound?
Answer: Its TGI is 19 µM.

Question: What about the TGI (HS 578T breast) of the same compound?
Answer: Its TGI is 30.7 µM.

Question: And the TGI (HT29 colon)?
Answer: The TGI was 12.9 µM.

Question: What about the TGI (IGROV1 ovarian) of the same compound?
Answer: Its TGI is 24.2 µM.

Question: What about the TGI (K-562 leukemia) of the same compound?
Answer: Its TGI is 4.32 µM.

Question: And the TGI (KM12 colon)?
Answer: The TGI was 9.51 µM.

Question: What about the TGI (LOX IMVI melanoma) of the same compound?
Answer: Its TGI is 2.97 µM.

Question: What about the TGI (M14 melanoma) of the same compound?
Answer: The TGI was 3.48 µM.

Question: What about the TGI (MALME-3M melanoma) of the same compound?
Answer: The TGI was 28.6 µM.

Question: And the TGI (MCF7 breast)?
Answer: The TGI was 19 µM.

Question: What about the TGI (MDA-MB-231 breast) of the same compound?
Answer: The TGI was 20.9 µM.

Question: What about the TGI (MDA-MB-435) of the same compound?
Answer: Its TGI is 17.4 µM.

Question: What about the TGI (MDA-N) of the same compound?
Answer: Its TGI is 5.97 µM.

Question: What about the TGI (MOLT-4 leukemia) of the same compound?
Answer: The TGI was 14.8 µM.

Question: What about the TGI (NCI-H226 lung) of the same compound?
Answer: The TGI was 33.2 µM.

Question: What about the TGI (NCI-H23 lung) of the same compound?
Answer: Its TGI is 26.5 µM.

Question: And the TGI (NCI-H460 lung)?
Answer: Its TGI is 3.71 µM.

Question: And the TGI (NCI-H522 lung)?
Answer: Its TGI is 11.7 µM.

Question: What about the TGI (NCI/ADR-RES ovarian) of the same compound?
Answer: The TGI was 28.7 µM.

Question: What about the TGI (OVCAR-3 ovarian) of the same compound?
Answer: Its TGI is 28.2 µM.

Question: And the TGI (OVCAR-4 ovarian)?
Answer: Its TGI is 24.8 µM.

Question: What about the TGI (OVCAR-5 ovarian) of the same compound?
Answer: Its TGI is 30.6 µM.

Question: What about the TGI (OVCAR-8 ovarian) of the same compound?
Answer: The TGI was 21.5 µM.

Question: What about the TGI (PC-3 prostate) of the same compound?
Answer: Its TGI is 21.3 µM.

Question: What about the TGI (RPMI-8226 leukemia) of the same compound?
Answer: The TGI was 8.65 µM.

Question: And the TGI (RXF 393 renal)?
Answer: Its TGI is 18.6 µM.

Question: And the TGI (SF-268 CNS)?
Answer: The TGI was 22.7 µM.

Question: What about the TGI (SF-295 CNS) of the same compound?
Answer: Its TGI is 15.7 µM.

Question: And the TGI (SF-539 CNS)?
Answer: The TGI was 30.9 µM.

Question: What about the TGI (SK-MEL-2 melanoma) of the same compound?
Answer: The TGI was 3.32 µM.

Question: What about the TGI (SK-MEL-28 melanoma) of the same compound?
Answer: Its TGI is 9.37 µM.

Question: And the TGI (SK-MEL-5 melanoma)?
Answer: The TGI was 4.97 µM.

Question: What about the TGI (SK-OV-3 ovarian) of the same compound?
Answer: The TGI was 29.2 µM.

Question: And the TGI (SN12C renal)?
Answer: The TGI was 24.3 µM.

Question: And the TGI (SNB-19 CNS)?
Answer: The TGI was 28.3 µM.

Question: And the TGI (SNB-75 CNS)?
Answer: The TGI was 23.9 µM.

Question: What about the TGI (SR leukemia) of the same compound?
Answer: Its TGI is 9.01 µM.

Question: And the TGI (SW-620 colon)?
Answer: The TGI was 7.51 µM.

Question: What about the TGI (T-47D breast) of the same compound?
Answer: Its TGI is 25.7 µM.

Question: And the TGI (TK-10 renal)?
Answer: Its TGI is 22.5 µM.

Question: What about the TGI (U251 CNS) of the same compound?
Answer: The TGI was 18.2 µM.

Question: What about the TGI (UACC-257 melanoma) of the same compound?
Answer: Its TGI is 26.4 µM.

Question: And the TGI (UACC-62 melanoma)?
Answer: The TGI was 8.69 µM.

Question: And the TGI (UO-31 renal)?
Answer: The TGI was 15 µM.

— PubChem BioAssay (NCI)
